Tested on: male CD/Crl:CD(SD) rats
Experiment: Acute toxicity study, single peroral application, 14‐day observation
Type: in vivo
Details: for Ataxia / Chromodacryorrhea / Dyspnoea / Inhibition of body weight gain / Mean body weight gain, After 7 d / Mean body weight, After 7 d / Mortality within 6 h / Mortality within 7 h / Mortality within 14 h / Mortality within 24 h / Necropsy findings / Piloerection / Ptosis / Reduced motility / Reduced muscle tone / Mean body weight gain, End / Mean body weight, End / Mean body weight, Start: p.o., males, n = 5; for Mean body weight gain, End / Mean body weight, End: 14‐day observation; for Mean body weight, Start: before administration
Protocol: In total, 90 male CD®/Crl:CD(SD) rats from Charles River Laboratories, Deutschland GmbH, were used after randomization. Five rats were selected for each concentration of the corresponding experimental substance. […] In addition, a control group was formed with five rats receiving only the HPMC gel.
Feeding was stopped approximately 16 h before the start of test substance application, whereas tap water continued to be available ad libitum. Granulated structural wood was used as bedding material in the cages; the material was changed and the cages were cleaned twice a week. […] The rooms were illuminated (approximately 150 lux from a ceiling height of approximately 1.50 m) and darkened for 12 h in turns.
Each animal was kept under observation, so that any behavior deviating from the norm could be systematically recorded. Observations were made before the peroral application of the respective active substance, immediately after, and 5, 15, 30, and 60 min and 3, 6, and 24 h after the start of application. […] We focused on the changes in the skin and fur, the eyes and mucous membranes, respiration, circulation, the autonomous and central nervous systems, somatomotor activity, and behavior patterns. They were also observed for possible tremors, convulsions, salivation, diarrhea, lethargy, sleep, and coma. Mortality checks were performed at least once a day to minimize the loss of animals during the study. The time of death was recorded as accurately as possible. Individual body weights were recorded before the administration of experimental substances and, subsequently, at weekly intervals, until the end of the study and at death. Weight changes were calculated when survival exceeded 1 day.
At the end of the experiments, all surviving animals were sacrificed, dissected, and examined macroscopically. All notable pathological changes were recorded. A microscopic examination of all organs showing obvious lesions was performed on animals that survived for 24 h or longer. Autopsy and macroscopic inspection of prematurely deceased animals were performed as soon as possible after death.

Question: Which Ataxia (10 mg/kg b.w.) does the source give for `CCCCCCCCCCCCn1ccnc1` [I‐an, 1‐imidazolyldodecane] here?
Answer: None

Question: And the Chromodacryorrhea (10 mg/kg b.w.)?
Answer: None

Question: What about the Dyspnoea (10 mg/kg b.w.) of the same molecule?
Answer: None

Question: And the “Inhibition of body weight gain” value (10 mg/kg b.w.)?
Answer: None

Question: What about the “Mean body weight gain, After 7 d” value (10 mg/kg b.w.) of the same molecule?
Answer: +24.4%

Question: And the “Mean body weight, After 7 d” value (10 mg/kg b.w.)?
Answer: 293.2 g

Question: And the “Mortality within 6 h” value (10 mg/kg b.w.)?
Answer: 0

Question: And the “Mortality within 7 h” value (10 mg/kg b.w.)?
Answer: 0

Question: What about the “Mortality within 14 h” value (10 mg/kg b.w.) of the same molecule?
Answer: 0

Question: And the “Mortality within 24 h” value (10 mg/kg b.w.)?
Answer: 0

Question: And the Necropsy findings (10 mg/kg b.w.)?
Answer: None

Question: And the Piloerection (10 mg/kg b.w.)?
Answer: None

Question: And the Ptosis (10 mg/kg b.w.)?
Answer: None

Question: What about the Reduced motility (10 mg/kg b.w.) of the same molecule?
Answer: None

Question: And the Reduced muscle tone (10 mg/kg b.w.)?
Answer: None

Question: And the “Mean body weight gain, End” value (10 mg/kg b.w.)?
Answer: +39.4%

Question: And the “Mean body weight, End” value (10 mg/kg b.w.)?
Answer: 328.4 g

Question: And the “Mean body weight, Start” value (10 mg/kg b.w.)?
Answer: 235.6 g

Question: And the Ataxia (50 mg/kg b.w.)?
Answer: None

Question: What about the Chromodacryorrhea (50 mg/kg b.w.) of the same molecule?
Answer: None

Question: And the Dyspnoea (50 mg/kg b.w.)?
Answer: None

Question: What about the “Inhibition of body weight gain” value (50 mg/kg b.w.) of the same molecule?
Answer: None

Question: And the “Mean body weight gain, After 7 d” value (50 mg/kg b.w.)?
Answer: +26.6%

Question: And the “Mean body weight, After 7 d” value (50 mg/kg b.w.)?
Answer: 296.4 g

Question: What about the “Mortality within 6 h” value (50 mg/kg b.w.) of the same molecule?
Answer: 0

Question: And the “Mortality within 7 h” value (50 mg/kg b.w.)?
Answer: 0

Question: And the “Mortality within 14 h” value (50 mg/kg b.w.)?
Answer: 0

Question: And the “Mortality within 24 h” value (50 mg/kg b.w.)?
Answer: 0

Question: What about the Necropsy findings (50 mg/kg b.w.) of the same molecule?
Answer: None

Question: What about the Piloerection (50 mg/kg b.w.) of the same molecule?
Answer: None

Question: What about the Ptosis (50 mg/kg b.w.) of the same molecule?
Answer: None

Question: What about the Reduced motility (50 mg/kg b.w.) of the same molecule?
Answer: None

Question: And the Reduced muscle tone (50 mg/kg b.w.)?
Answer: None

Question: What about the “Mean body weight gain, End” value (50 mg/kg b.w.) of the same molecule?
Answer: +40.6%

Question: And the “Mean body weight, End” value (50 mg/kg b.w.)?
Answer: 329.2 g

Question: And the “Mean body weight, Start” value (50 mg/kg b.w.)?
Answer: 234.2 g

Question: What about the Ataxia (100 mg/kg b.w.) of the same molecule?
Answer: None

Question: And the Chromodacryorrhea (100 mg/kg b.w.)?
Answer: None

Question: And the Dyspnoea (100 mg/kg b.w.)?
Answer: None

Question: And the “Inhibition of body weight gain” value (100 mg/kg b.w.)?
Answer: None

Question: And the “Mean body weight gain, After 7 d” value (100 mg/kg b.w.)?
Answer: +22.0%

Question: And the “Mean body weight, After 7 d” value (100 mg/kg b.w.)?
Answer: 283.6 g

Question: And the “Mortality within 6 h” value (100 mg/kg b.w.)?
Answer: 0

Question: What about the “Mortality within 7 h” value (100 mg/kg b.w.) of the same molecule?
Answer: 0

Question: And the “Mortality within 14 h” value (100 mg/kg b.w.)?
Answer: 0

Question: What about the “Mortality within 24 h” value (100 mg/kg b.w.) of the same molecule?
Answer: 0

Question: What about the Necropsy findings (100 mg/kg b.w.) of the same molecule?
Answer: None

Question: And the Piloerection (100 mg/kg b.w.)?
Answer: None

Question: What about the Ptosis (100 mg/kg b.w.) of the same molecule?
Answer: None

Question: What about the Reduced motility (100 mg/kg b.w.) of the same molecule?
Answer: None

Question: And the Reduced muscle tone (100 mg/kg b.w.)?
Answer: None

Question: What about the “Mean body weight gain, End” value (100 mg/kg b.w.) of the same molecule?
Answer: +34.2%

Question: And the “Mean body weight, End” value (100 mg/kg b.w.)?
Answer: 311.8 g

Question: What about the “Mean body weight, Start” value (100 mg/kg b.w.) of the same molecule?
Answer: 232.4 g

Question: And the Ataxia (250 mg/kg b.w.)?
Answer: None

Question: And the Chromodacryorrhea (250 mg/kg b.w.)?
Answer: None

Question: And the Dyspnoea (250 mg/kg b.w.)?
Answer: None

Question: And the “Inhibition of body weight gain” value (250 mg/kg b.w.)?
Answer: None

Question: What about the “Mean body weight gain, After 7 d” value (250 mg/kg b.w.) of the same molecule?
Answer: +19.4%

Question: And the “Mean body weight, After 7 d” value (250 mg/kg b.w.)?
Answer: 266.2 g

Question: And the “Mortality within 6 h” value (250 mg/kg b.w.)?
Answer: 0

Question: And the “Mortality within 7 h” value (250 mg/kg b.w.)?
Answer: 0

Question: And the “Mortality within 14 h” value (250 mg/kg b.w.)?
Answer: 0

Question: What about the “Mortality within 24 h” value (250 mg/kg b.w.) of the same molecule?
Answer: 0

Question: And the Necropsy findings (250 mg/kg b.w.)?
Answer: None

Question: What about the Piloerection (250 mg/kg b.w.) of the same molecule?
Answer: None

Question: What about the Ptosis (250 mg/kg b.w.) of the same molecule?
Answer: None

Question: What about the Reduced motility (250 mg/kg b.w.) of the same molecule?
Answer: None

Question: And the Reduced muscle tone (250 mg/kg b.w.)?
Answer: None

Question: And the “Mean body weight gain, End” value (250 mg/kg b.w.)?
Answer: +32.7%

Question: And the “Mean body weight, End” value (250 mg/kg b.w.)?
Answer: 296.0 g

Question: What about the “Mean body weight, Start” value (250 mg/kg b.w.) of the same molecule?
Answer: 223.0 g

Question: What about the Toxic signs (250 mg/kg bw) of the same molecule?
Answer: None

Question: And the “Time of premature death” value (500 mg/kg b.w.)?
Answer: 6 days

Question: And the Ataxia (500 mg/kg b.w.)?
Answer: None

Question: And the Chromodacryorrhea (500 mg/kg b.w.)?
Answer: None

Question: What about the Dyspnoea (500 mg/kg b.w.) of the same molecule?
Answer: None

Question: And the “Inhibition of body weight gain” value (500 mg/kg b.w.)?
Answer: None

Question: What about the “Mean body weight gain, After 7 d” value (500 mg/kg b.w.) of the same molecule?
Answer: +21.8%

Question: And the “Mean body weight, After 7 d” value (500 mg/kg b.w.)?
Answer: 288.7 g

Question: And the “Mortality within 6 h” value (500 mg/kg b.w.)?
Answer: 0

Question: What about the “Mortality within 7 h” value (500 mg/kg b.w.) of the same molecule?
Answer: 2

Question: And the “Mortality within 14 h” value (500 mg/kg b.w.)?
Answer: 2

Question: And the “Mortality within 24 h” value (500 mg/kg b.w.)?
Answer: 0

Question: And the Necropsy findings (500 mg/kg b.w.)?
Answer: None

Question: And the Piloerection (500 mg/kg b.w.)?
Answer: None

Question: What about the Ptosis (500 mg/kg b.w.) of the same molecule?
Answer: None

Question: What about the Reduced motility (500 mg/kg b.w.) of the same molecule?
Answer: None

Question: And the Reduced muscle tone (500 mg/kg b.w.)?
Answer: None

Question: What about the “Mean body weight gain, End” value (500 mg/kg b.w.) of the same molecule?
Answer: +38.4%

Question: And the “Mean body weight, End” value (500 mg/kg b.w.)?
Answer: 328.0 g

Question: What about the “Mean body weight, Start” value (500 mg/kg b.w.) of the same molecule?
Answer: 237.0 g

Question: And the Toxic signs (500 mg/kg bw)?
Answer: Mortality

Question: What about the “Time of premature death” value (1000 mg/kg b.w.) of the same molecule?
Answer: 5 days

Question: And the Ataxia (1000 mg/kg b.w.)?
Answer: None

Question: What about the Chromodacryorrhea (1000 mg/kg b.w.) of the same molecule?
Answer: None

Question: And the Dyspnoea (1000 mg/kg b.w.)?
Answer: None

Question: And the “Inhibition of body weight gain” value (1000 mg/kg b.w.)?
Answer: None

Question: And the “Mean body weight gain, After 7 d” value (1000 mg/kg b.w.)?
Answer: +15.0%

Question: And the “Mean body weight, After 7 d” value (1000 mg/kg b.w.)?
Answer: 270.3 g

Question: What about the “Mortality within 6 h” value (1000 mg/kg b.w.) of the same molecule?
Answer: 0

Question: What about the “Mortality within 7 h” value (1000 mg/kg b.w.) of the same molecule?
Answer: 1

Question: What about the “Mortality within 14 h” value (1000 mg/kg b.w.) of the same molecule?
Answer: 1

Question: And the “Mortality within 24 h” value (1000 mg/kg b.w.)?
Answer: 0

Question: What about the Necropsy findings (1000 mg/kg b.w.) of the same molecule?
Answer: None

Question: What about the Piloerection (1000 mg/kg b.w.) of the same molecule?
Answer: None

Question: What about the Ptosis (1000 mg/kg b.w.) of the same molecule?
Answer: None

Question: What about the Reduced motility (1000 mg/kg b.w.) of the same molecule?
Answer: None

Question: What about the Reduced muscle tone (1000 mg/kg b.w.) of the same molecule?
Answer: None

Question: And the “Mean body weight gain, End” value (1000 mg/kg b.w.)?
Answer: +36.2%

Question: What about the “Mean body weight, End” value (1000 mg/kg b.w.) of the same molecule?
Answer: 320.0 g

Question: What about the “Mean body weight, Start” value (1000 mg/kg b.w.) of the same molecule?
Answer: 235.0 g

Question: And the Toxic signs (1000 mg/kg bw)?
Answer: Mortality

Question: What about the “Premature deaths in the acute toxicity study” value (all dose groups, 30 rats per substance) of the same molecule?
Answer: three

Question: And the Macroscopic necropsy findings (all doses)?
Answer: None

Question: And the Lowest lethal dose (rats, single p.o. dose)?
Answer: 500 mg/kg bw

Question: What about the “No Observed Adverse Effect Level” value (rats, single p.o. dose) of the same molecule?
Answer: 250 mg/kg bw

Question: And the “LD50(14 d)” value (rats, single p.o. dose, 14 days)?
Answer: >1000 mg/kg bw

Source: PMC7995547, “ω‐Imidazolyl‐alkyl derivatives as new preclinical drug candidates for treating non‐alcoholic steatohepatitis” (Physiological Reports, 2021)
